Experimental data reported in US12180612B2, “Plant tissue-derived nanofibres” (priority 2018, dated 2024).
“And” between values parts separate entries of the source, which are not always exact repeats. Equal values may be shown once. “Also recorded” adds a separate entry of the source. Read-outs that look alike come from different tables or passages of the source.

Legend:
HT 29 cells = assay: Uptake of calcein and calcein-loaded nanofibres, confocal microscopy; format: cell-based, human
Method: (§1) Calcein uptake into HT 29, CRL 1790 cells: Uptake of calcein-loaded nanoparticles into mammalian cells. Calcein by itself is impermeable through membrane, and may be taken up at a low level by endocytosis. Ethanol-bleached cherry was homogenized in water, also containing 1 mg/g fresh weight equivalent of calcein, and the supernatant dialyzed against water. Calcein complexed to nanofilaments is retained within the dialysis bag, and used for uptake measurements by confocal microscopy.
(§2) Uptake of complexed molecules by nanofibres: Nanofibres are extremely long (micrometers in length, ˜5 nm in diameter; see FIG. 37, for example), and their ability to cross the plasma membrane was investigated. In this experiment, the ability of nanofibres to form natural complexes with a membrane impermeable fluorescent dye, calcein, was investigated. Nanofibres where prepared from ethanol-bleached cherry by procedures described herein above. […] HT-29 and CRL-1790 cells were incubated in the presence of calcein alone, and calcein-complexed nanofibres (of equal fluorescence intensity). Uptake of calcein and calcein complexed with nanofibres were monitored by confocal microscopy. […] Similar experiments were also conducted with nanoparticles, however, because of quenching of fluorescence by polyphenols, successful acquisition of images was not achieved.

[1] = tested on: normal human intestinal CRL 1790 cells; assay: as above; format: cell-based
Method: as §1, §2

[2] = tested on: human colorectal cancer cells (HT 29)
Method: (§3) Cell culture: Three cell lines derived from colon, CRL 1790, a normal cell line, HT 29, a colorectal cancer cell line and CRL 2158 a multidrug resistant colorectal cancer cell line (ATCC) were used to evaluate the cytotoxicity of nanocomplexes. Cells were cultured in media specifically recommended for each cell line. For HT 29, the medium used was DMEM (Dulbecco's modified Eagle's medium, Sigma), for CRL 2158, the medium used was RPMI, and for CRL 1790, the medium used was EMEM (Eagle's minimum essential medium; Cedarlane Labs, Burlington, ON, Canada). All the media were supplemented with FBS, Penicillin/streptomycin, and L-glutamine. At confluency (˜80%), cells were washed with 1×PBS twice. Cells were incubated with trypsin-EDTA for 5 minutes and then diluted in respective media supplemented with 10% FBS before staining with trypan blue (50 μl of cells and 450 μl of trypan blue) and counting viable cells to evaluate cytotoxicity. The cytotoxicity was determined by trypan blue exclusion by living cells and blue staining of dead cells. The number of dead cells in a unit area was counted and expressed as a percentage of total cells in the area.
(§4) Cytotoxicity of nanoparticles and nanofibres against cancer cells: These studies evaluate the cytotoxic effects of the purified nanoparticles and the nanofibres isolated from sour cherry using normal human colonic epithelial cells (CRL 1790), human colorectal cancer cells (HT 29) and multidrug resistant human colorectal cancer cells (CRL 2158) in the presence or absence of paclitaxel. Nanoparticles were added as polyphenol equivalent aliquots, while the nanofibres were added on a weight basis. […]

[3] = tested on: multidrug resistant human colorectal cancer cells (CRL 2158)
Method: as §3, §4

[4] = tested on: normal human colonic epithelial cells (CRL 1790)
Method: as §3, §4

[5] = tested on: Human colorectal MDR cancer Cells (CRL 2158); conditions: B-Live/Dead cell analysis, paclitaxel 32 nM, 24 h, without or with nanofibre 4 μg/ml
Method: (§5) Live-Dead cell analysis: Cells were grown as confluent and subconfluent monolayers for 24 h as described previously (Hakimuddin et al., 2004). Cells were treated with paclitaxel, or paclitaxel along with nanofibers for 12 h (Appropriate amounts of paclitaxel and nanofibers were mixed in 5% DMSO in water, and added to the cells). Cells were washed with phosphate buffer and cell viability tests performed on CRL 1790, CRL 2158 and HT 29 cells using a live/dead cell viability kit (Invitrogen, Mississauga, Ontario) as described by the manufacturer. Live dead cells were visualized under a confocal microscope. The assay kit contains two fluorescent dyes, calcein AM ester (Ex 494 nm, Em 517 nm) which specifically enters live cells, gets de-esterified and stains the live cells green. The dying cells as well as dead cells are membrane compromised (leaky plasma membrane) and allows the entry of ethidium homodimer Ex 517 nm/Em 617), which stains the nucleus red.
(§6) Differentiating cytotoxicity by Live-Dead cell analysis: Further studies were performed to investigate delivery of paclitaxel using nanofibres into various cell lines. To further evaluate the efficiency of nanofibres in enhancing cytotoxicity of paclitaxel, live-dead cell analysis was conducted. Normal cells (CRL 1790), cancer cells (HT-29) and the MDR cells (CRL 2158) were cultured and exposed to paclitaxel alone, and paclitaxel along with nanofibres. The cells were cultured for 24 h at which time point, paclitaxel and the nanofibres were added to the culture. Live dead cell analysis was performed 24 h after exposure to the drug. […] The assay kit (Invitrogen) contains two fluorescent dyes, calcein AM ester (Ex 494 nm, Em 517 nm) which specifically enters live cells, gets de-esterified and stains the live cells green. The dying cells as well as dead cells are membrane compromised (leaky plasma membrane) and allows the entry of ethidium homodimer (Ex 517 nm/Em 617), which stains the nucleus red. […] Panels B, C represent control cells visualized at 617 nm (red, dead cells) and at 517 nm (green, live cells), respectively. Panel A is a composite image of untreated cells. Panels E, F represent the images of cells treated with paclitaxel (32 nM) recorded at the two wavelengths 617 and 517 nm respectively. Panel D is a composite image. Panels H and I show the cells treated with paclitaxel+nanofibres (32 nM+4 μg/ml nanofibers, the fibers and appropriate amount of paclitaxel were mixed in 5% DMSO and added to the culture medium of cells and allowed to incubate for 12 h). Panel G is a composite of the red and green images.

[6] = tested on: Normal Human Intestinal Cells (CRL 1790); conditions: B-Live/Dead cell analysis; paclitaxel 32 nM, 24 h, without or with nanofibre 4 μg/ml
Method: as §5, §6

[7] = tested on: human colorectal cancer cells (HT 29); conditions: B-Live/Dead cell analysis; paclitaxel 32 nM, 24 h, without or with nanofibre 4 μg/ml
Method: as §5, §6

[8] = DPPH radical scavenging capacity of food powder; format: biochemical; conditions: positive control at the same concentrations as polyphenols
Method: The powder was dissolved in water and the antioxidant capacity of the solution was determined by estimating the DPPH Radical scavenging capacity of solution as polyphenol equivalent (estimated by Folin-Ciocalteau reagent) in micrograms. A 0.1 mM Folin-Ciocateau reagent was prepared in methanol, and the food powder solution was added in the specified amounts. The antioxidants were allowed to react with 1 ml of DPPH reagent, and the absorbance (purple, 517 nm absorption) was monitored. The decline in 517 nm absorbance was noted and expressed as % quenching in comparison to a control without polyphenol. […] Each point at a concentration represents an individual sample of food powder prepared;
The powder was dissolved in water and the antioxidant capacity of the solution was determined by estimating the DPPH Radical scavenging capacity of solution as polyphenol equivalent (estmated by Folin-Ciocalteau reagent) in micrograms. A 0.1 mM Folin-Ciocateau reagent was prepared in methanol, and the food powder solution was added in the specified amounts. The antioxidants were allowed to react with 1 ml of DPPH reagent, and the absorbance (purple, 517 nm absorption) was monitored. The decline in 517 nm absorbance was noted and expressed as % quenching in comparison to a control without polyphenol. […] Each point at a concentration represents an individual sample of food powder prepared.

SMILES: O=C(O)CN(CC(=O)O)Cc1cc2c(cc1O)Oc1cc(O)c(CN(CC(=O)O)CC(=O)O)cc1C21OC(=O)c2ccccc21 [Calcein]
- uptake into cells (in words) (HT 29 cells): comparatively very low; also recorded: Far reduced uptake
- uptake into cells (in words) [1]: comparatively very low

SMILES: CC(=O)O[C@H]1C(=O)[C@@]2(C)[C@H]([C@H](OC(=O)c3ccccc3)[C@]3(O)C[C@H](OC(=O)[C@H](O)[C@@H](NC(=O)c4ccccc4)c4ccccc4)C(C)=C1C3(C)C)[C@]1(OC(C)=O)CO[C@@H]1C[C@@H]2O [Paclitaxel]
- % Living cells Colorectal Cancer Cell Line HT 29 ([2]; Paclitaxel 2 nM): 70.93%
- % Living cells Colorectal Cancer Cell Line HT 29 ([2]; Paclitaxel 8 nM): 59.11%
- % Living cells Colorectal Cancer Cell Line HT 29 ([2]; Paclitaxel 32 nM): 50% and 48.27%
- % Living cells Colorectal MDR cell line CRL 2158 ([3]; Paclitaxel 2 nM): 90.86%
- % Living cells Colorectal MDR cell line CRL 2158 ([3]; Paclitaxel 8 nM): 86.17%
- % Living cells Colorectal MDR cell line CRL 2158 ([3]; Paclitaxel 32 nM): 83.76%
- % Living cells Normal Cell Line CRL 1790 ([4]; Paclitaxel 2 nM): 86.66%
- % Living cells Normal Cell Line CRL 1790 ([4]; Paclitaxel 8 nM): 74.28%
- % Living cells Normal Cell Line CRL 1790 ([4]; Paclitaxel 32 nM): 66.79%
- % Living cells Colorectal MDR cell line CRL 2158 [5]: 46.00%
- % Living cells Colorectal MDR cell line CRL 2158 ([5]; listed as paclitaxel): ~50%
- % Living cells Normal Cell Line CRL 1790 [6]: 97.6%
- % Living cells Colorectal Cancer Cell Line HT 29 [7]: 10.78%

SMILES: Cc1c(C)c2c(c(C)c1O)CCC(C)(C(=O)O)O2 (stereo not shown) [Trolox]
- TEAC value [8]: 1
